{"source": "patent US10844044B2", "about": "(Vanderbilt University, priority 2018, dated 2020)", "data": [{"target": "WDR5 (Homo sapiens (Human), UniProt P61964)", "assay": "TR-FRET binding assay (displacement of 10mer-Thr-FAM probe from WDR5)", "details": "not given", "units": {"Ki": "nM"}, "values": [{"smiles": "Cn1ccn(Cc2cc(C(=O)N[C@H]3CCc4cc(F)ccc43)cc(-c3cccnc3C(F)(F)F)c2)c1=N", "note": "[Example 129, (S)—N-(5-Fluoro-2,3-dihydro-1H-inden-1-yl)-3-((2-imino-3-methyl-2,3-dihydro-1H-imidazol-1-yl)methyl)-5-(2-(trifluoromethyl)pyridin-3-yl)benzamide]", "Ki": "> 33"}, {"smiles": "COc1cc(CNC(=O)c2cc(Cn3ccn(-c4ccccc4)c3=N)cc(-c3ccc(F)cc3C)c2)cc(OC)c1", "note": "[Example 133, N-(3,5-Dimethoxybenzyl)-4′-fluoro-5-((2-imino-3-phenyl-2,3-dihydro-1H-imidazol-1-yl)methyl)-2′-methyl-[1,1′-biphenyl]-3-carboxamide]", "Ki": "> 33"}]}, {"target": "WDR5 (Homo sapiens (Human), UniProt P61964)", "assay": "TR-FRET binding assay (displacement of 10mer-Thr-FAM probe from WDR5)", "details": "read-out: Ki for Inhibition of WDR5 by TR-FRET assay", "units": {"Ki": "nM"}, "values": [{"smiles": "Cc1ccnc(C(NC(=O)c2cc(Cn3ccn(C)c3=N)cc(-c3ncnc4c3CCCC4)c2)C2CC2)c1", "note": "(stereo not drawn) [Example 95, N-(Cyclopropyl(4-methylpyridin-2-yl)methyl)-3-((2-imino-3-methyl-2,3-dihydro-1H-imidazol-1-yl)methyl)-5-(5,6,7,8-tetrahydroquinazolin-4-yl)benzamide]", "Ki": 20}, {"smiles": "Cc1cc([C@@H](NC(=O)c2cc(Cn3ccn(C)c3=N)cc(-c3cncnc3C(F)(F)F)c2)C2CC2)ccc1F", "note": "[Example 123, (S)—N-(Cyclopropyl(4-fluoro-3-methylphenyl)methyl)-3-((2-imino-3-methyl-2,3-dihydro-1H-imidazol-1-yl)methyl)-5-(4-(trifluoromethyl)pyrimidin-5-yl)benzamide]", "Ki": 0.18}, {"smiles": "C[C@H](NC(=O)c1cc(Cn2ccn(C)c2=N)cc(-c2cccnc2C(F)(F)F)c1)c1ccc(F)c(Cl)c1", "note": "[Example 124, (S)—N-(1-(3-chloro-4-fluorophenyl)ethyl)-3-((2-imino-3-methyl-2,3-dihydro-1H-imidazol-1-yl)methyl)-5-(2-(trifluoromethyl)pyridin-3-yl)benzamide]", "Ki": 1}, {"smiles": "Cc1cc([C@@H](NC(=O)c2cc(Cn3ccn(-c4ccccc4)c3=N)cc(-c3cccnc3C(F)(F)F)c2)C2CC2)ccc1F", "note": "[Example 137, (S)—N-(Cyclopropyl(4-fluoro-3-methylphenyl)methyl)-3-((2-imino-3-phenyl-2,3-dihydro-1H-imidazol-1-yl)methyl)-5-(2-(trifluoromethyl)pyridin-3-yl)benzamide]", "Ki": "> 33"}]}, {"target": "WDR5 (Homo sapiens (Human), UniProt P61964)", "assay": "TR-FRET binding assay (displacement of 10mer-Thr-FAM probe from WDR5)", "details": "read-out: Ki for Inhibition of WDR5 by TR-FRET assay; TR-FRET, 10mer-Thr-FAM probe, WDR5-His tag 2 nM, pH 7.0", "units": {"Ki": "nM"}, "values": [{"smiles": "Cc1cc(=O)[nH]cc1-c1cc(Cn2ccn(C)c2=N)cc(C(=O)NCc2ccc(Cl)c(Cl)c2)c1", "note": "[Example 82, N-(3,4-dichlorobenzyl)-3-((2-imino-3-methyl-2,3-dihydro-1H-imidazol-1-yl)methyl)-5-(4-methyl-6-oxo-1,6-dihydropyridin-3-yl)benzamide]", "Ki": 20}, {"smiles": "Cc1cc(CNC(=O)c2cc(Cn3ccn(C)c3=N)cc(-c3c[nH]c(=O)cc3C)c2)ccc1Cl", "note": "[Example 83, N-(4-Chloro-3-methylbenzyl)-3-((2-imino-3-methyl-2,3-dihydro-1H-imidazol-1-yl)methyl)-5-(4-methyl-6-oxo-1,6-dihydropyridin-3-yl)benzamide]", "Ki": 7.1}, {"smiles": "Cc1ccccc1-c1cc(Cn2ccn(C)c2=N)cc(C(=O)NCc2ccc(Cl)c(Cl)c2)c1", "note": "[Example 92, N-(3,4-dichlorobenzyl)-5-((2-imino-3-methyl-2,3-dihydro-1H-imidazol-1-yl)methyl)-2′-methyl-[1,1′-biphenyl]-3-carboxamide]", "Ki": 0.72}, {"smiles": "COc1ccnc([C@H](NC(=O)c2cc(Cn3ccn(C)c3=N)cc(-c3ccc(F)cc3C)c2)C2CC2)c1", "note": "[Example 93, (R)—N-(Cyclopropyl(4-methoxypyridin-2-yl)methyl)-4′-fluoro-5-((2-imino-3-methyl-2,3-dihydro-1H-imidazol-1-yl)methyl)-2′-methyl-[1,1′-biphenyl]-3-carboxamide]", "Ki": 1.9}, {"smiles": "Cc1cc([C@@H](NC(=O)c2cc(Cn3ccn(C)c3=N)cc(-c3ncnc4c3CCCC4)c2)C2CC2)ccc1F", "note": "[Example 94, (S)—N-(Cyclopropyl(4-fluoro-3-methylphenyl)methyl)-3-((2-imino-3-methyl-2,3-dihydro-1H-imidazol-1-yl)methyl)-5-(5,6,7,8-tetrahydroquinazolin-4-yl)benzamide]", "Ki": 36}, {"smiles": "COc1cc(OC)cc(C(NC(=O)c2cc(Cn3ccn(C)c3=N)cc(-c3ncnc4c3CCCC4)c2)C2CC2)c1", "note": "(stereo not drawn) [Example 96, N-(Cyclopropyl(3,5-dimethoxyphenyl)methyl)-3-((2-imino-3-methyl-2,3-dihydro-1H-imidazol-1-yl)methyl)-5-(5,6,7,8-tetrahydroquinazolin-4-yl)benzamide]", "Ki": 27}, {"smiles": "Cc1cc(CNC(=O)c2cc(Cn3ccn(C)c3=N)cc(-c3ccc(F)cc3C(F)(F)F)n2)ccc1Cl", "note": "[Example 99, N-(4-Chloro-3-methylbenzyl)-6-(4-fluoro-2-(trifluoromethyl)phenyl)-4-((2-imino-3-methyl-2,3-dihydro-1H-imidazol-1-yl)methyl)picolinamide]", "Ki": 1.1}, {"smiles": "COc1cc(CNC(=O)c2cc(Cn3ccn(C)c3=N)cc(-c3ccc(F)cc3C(F)(F)F)n2)cc(OC)c1", "note": "[Example 100, N-(3,5-Dimethoxybenzyl)-6-(4-fluoro-2-(trifluoromethyl)phenyl)-4-((2-imino-3-methyl-2,3-dihydro-1-imidazol-1-yl)methyl)picolinamide]", "Ki": 0.71}, {"smiles": "Cc1ccnc(C(NC(=O)c2cc(Cn3ccn(C)c3=N)cc(-c3ccc(F)cc3C(F)(F)F)n2)C2CC2)c1", "note": "(stereo not drawn) [Example 101, N-(Cyclopropyl(4-methylpyridin-2-yl)methyl)-6-(4-fluoro-2-(trifluoromethyl)phenyl)-4-((2-imino-3-methyl-2,3-dihydro-1H-imidazol-1-yl)methyl)picolinamide]", "Ki": 0.45}, {"smiles": "COC(=O)CC(NC(=O)c1cc(Cn2ccn(C)c2=N)cc(-c2ccc(F)cc2C(F)(F)F)c1F)c1ccc(Cl)c(Cl)c1", "note": "(stereo not drawn) [Example 110, Methyl 3-(3,4-dichlorophenyl)-3-(2,4′-difluoro-5-((2-imino-3-methyl-2,3-dihydro-1H-imidazol-1-yl)methyl)-2′-(trifluoromethyl)-[1,1′-biphenyl]-3-carboxamido)propanoate]", "Ki": 0.1}, {"smiles": "Cc1[nH]c(=O)ccc1-c1cc(Cn2ccn(C)c2=N)cc(C(=O)NCc2ccc(Cl)c(Cl)c2)c1", "note": "[Example 112, N-(3,4-Cichlorobenzyl)-3-((2-imino-3-methyl-2,3-dihydro-1-imidazol-1-yl)methyl)-5-(2-methyl-6-oxo-1,6-dihydropyridin-3-yl)benzamide]", "Ki": 29}, {"smiles": "Cc1cc([C@@H](NC(=O)c2cc(Cn3ccn(C)c3=N)cc(-c3cnc(F)cc3C)c2)C2CC2)ccc1F", "note": "[Example 113, (S)—N-(Cyclopropyl(4-fluoro-3-methylphenyl)methyl)-3-(6-fluoro-4-methylpyridin-3-yl)-5-((2-imino-3-methyl-2,3-dihydro-1H-imidazol-1-yl)methyl)benzamide]", "Ki": "> 33"}, {"smiles": "C[C@H](NC(=O)c1cc(Cn2ccn(C)c2=N)cc(-c2cccnc2C(F)(F)F)c1)c1ccc(C(F)(F)F)cc1", "note": "[Example 126, (S)-3-((2-Imino-3-methyl-2,3-dihydro-1H-imidazol-1-yl)methyl)-N-(1-(4-(trifluoromethyl)phenyl)ethyl)-5-(2-(trifluoromethyl)pyridin-3-yl)benzamide]", "Ki": 2.5}, {"smiles": "Cn1ccn(Cc2cc(C(=O)N[C@H](c3ccc(F)cn3)C3CC3)cc(-c3cccnc3C(F)(F)F)c2)c1=N", "note": "[Example 128, (S)—N-(Cyclopropyl(5-fluoropyridin-2-yl)methyl)-3-((2-imino-3-methyl-2,3-dihydro-1H-imidazol-1-yl)methyl)-5-(2-(trifluoromethyl)pyridin-3-yl)benzamide]", "Ki": 23}, {"smiles": "C[C@H](NC(=O)c1cc(Cn2ccn(C)c2=N)cc(-c2cccnc2C(F)(F)F)c1)c1ncc(F)cn1", "note": "[Example 130, (S)—N-(1-(5-Fluoropyrimidin-2-yl)ethyl)-3-((2-imino-3-methyl-2,3-dihydro-1H-imidazol-1-yl)methyl)-5-(2-(trifluoromethyl)pyridin-3-yl)benzamide]", "Ki": "> 33"}, {"smiles": "COc1cc(CNC(=O)c2cc(Cn3ccn(CC4CC4)c3=N)cc(-c3ccc(F)cc3C)c2)cc(OC)c1", "note": "[Example 134, 5-((3-(Cyclopropylmethyl)-2-imino-2,3-dihydro-1H-imidazol-1-yl)methyl)-N-(3,5-dimethoxybenzyl)-4′-fluoro-2′-methyl-[1,1′-biphenyl]-3-carboxamide]", "Ki": 38}, {"smiles": "Cc1cc([C@@H](NC(=O)c2cc(Cn3ccn(C)c3=N)cc(-c3ccnc4c3CCC4)c2)C2CC2)ccc1F", "note": "[Example 136, (S)—N-(Cyclopropyl(4-fluoro-3-methylphenyl)methyl)-3-(6,7-dihydro-5H-cyclopenta[b]pyridin-4-yl)-5-((2-imino-3-methyl-2,3-dihydro-1H-imidazol-1-yl)methyl)benzamide]", "Ki": "< 0.1"}, {"smiles": "Cc1ccnc(C(NC(=O)c2cc(Cn3ccn(C)c3=N)cc(OC(F)(F)F)c2)C2CC2)c1", "note": "(stereo not drawn) [Example 145, N-(Cyclopropyl(4-methylpyridin-2-yl)methyl)-3-((2-imino-3-methyl-2,3-dihydro-1H-imidazol-1-yl)methyl)-5-(trifluoromethoxy)benzamide]", "Ki": 0.95}, {"smiles": "Cn1ccn(Cc2cc(OC(F)(F)F)cc(C(=O)N[C@@H](CC(=O)O)c3cccc(C(F)(F)F)c3)c2)c1=N", "note": "[Example 146, (S)-3-(3-((2-Imino-3-methyl-2,3-dihydro-1H-imidazol-1-yl)methyl)-5-(trifluoromethoxy)benzamido)-3-(3-(trifluoromethyl)phenyl)propanoic acid]", "Ki": 10}, {"smiles": "Cn1ccn(Cc2cc(C(=O)N[C@@H](CC(=O)O)c3cccc(C(F)(F)F)c3)c(F)c(-c3ccc(F)cc3C(F)(F)F)c2)c1=N", "note": "[Example 148, (S)-3-(2,4′-Difluoro-5-((2-imino-3-methyl-2,3-dihydro-1H-imidazol-1-yl)methyl)-2′-(trifluoromethyl)-[1,1′-biphenyl]-3-carboxamido)-3-(3-(trifluoromethyl)phenyl)propanoic acid]", "Ki": 0.29}, {"smiles": "Cc1ccnc([C@@H](NC(=O)c2cc(Cn3ccn(C)c3=N)cc(OC(F)(F)F)c2)C2CC2)c1", "note": "[Example 149, (S)—N-(Cyclopropyl(4-methylpyridin-2-yl)methyl)-3-((2-imino-3-methyl-2,3-dihydro-1H-imidazol-1-yl)methyl)-5-(trifluoromethoxy)benzamide]", "Ki": 0.56}]}]}
